Results: ChEMBL document CHEMBL3301361, “Experimental in vitro DMPK and physicochemical data on a set of publicly disclosed compounds”
Converted amounts (≈) assume the structure as drawn.

assay: physchem; settings: pH 7.4 buffer

Structure (SMILES)	solubility thermodynamic [µM]
COc1cc2ncnc(Oc3ccc(CC(=O)Nc4ccc(N(C)C)cn4)cc3)c2cc1OC	1.6 (≈ 0.735 µg/mL)
COc1cc2ncnc(Nc3ccc4c(ccn4Cc4ccccc4)c3)c2cc1OC	0.6 (≈ 0.246 µg/mL)
CCN(C(=O)Cc1ccc(S(C)(=O)=O)cc1)C1CCN(CCC(c2ccccc2)C2CCN(C(C)=O)CC2)CC1 (stereo not given)	1510 (≈ 859 µg/mL)
CC(c1ccccc1)n1cnc2ccccc2c1=O (stereo not given)	468 (≈ 117 µg/mL)
CN1CCC(Oc2cc(OCCF)cc3ncnc(Nc4c(Cl)ccc5c4OCO5)c23)CC1	759 (≈ 360 µg/mL)
O=C(Nc1ccccc1)c1ccc2cccc(O)c2n1	6.6 (≈ 1.74 µg/mL)
C[C@@H]1CN(C(=O)OC(C)(C)C)CCN1c1ncc(OCc2ccc(S(C)(=O)=O)cc2F)cn1	2.2 (≈ 1.06 µg/mL)
N#CC1(NC(=O)[C@@H]2CCCC[C@H]2C(=O)N2CCc3[nH]c4ncccc4c3C2)CC1	1510 (≈ 593 µg/mL)
O=C(CC(c1ccccc1)S(=O)(=O)c1ccccc1)c1ccccc1 (stereo not given)	1.1 (≈ 0.385 µg/mL)
O=S(=O)(Cc1cc(-c2ccccc2)no1)c1ccccc1	6.6 (≈ 1.98 µg/mL)
CCN(CCO)CCCOc1cc2ncnc(Nc3ncc(CC(=O)Nc4cccc(F)c4)s3)c2cc1OC	0.6 (≈ 0.333 µg/mL)
Cc1ccc(C(=O)N2CCC(C(=O)c3ccc(F)cc3)CC2)cc1	20.4 (≈ 6.64 µg/mL)
O=C(Nc1ccccc1C(F)(F)F)N1CCN(c2ccccn2)CC1	190 (≈ 66.7 µg/mL)
Clc1cccc(CNc2[nH]nc3cccc(Oc4ccccc4)c23)c1	1.3 (≈ 0.455 µg/mL)
N#Cc1c(C2CCCNC2)cc(-c2c(O)cccc2OCC2CC2)nc1N (stereo not given)	8.1 (≈ 2.95 µg/mL)
COc1cc(Oc2ccc(C(=O)NCc3ccncc3)cc2)ccc1[N+](=O)[O-]	21.4 (≈ 8.12 µg/mL)
CCN1CCC[C@@H](C(=O)N2CCN(C(=O)Nc3ccc(Cl)c(Cl)c3)CC2)C1	1050 (≈ 433 µg/mL)
c1ccc(Nc2ncnc3ccccc23)cc1	132 (≈ 29.2 µg/mL)
C[C@@H](c1ccc(-c2ccc(F)cc2F)cc1)N1CC[C@@](CCO)(c2ccc(F)cc2)OC1=O	5.2 (≈ 2.37 µg/mL)
COc1cc(-c2cnc(N)c(-c3nc4ccccc4[nH]3)c2)cc(OC)c1OC	0.5 (≈ 0.188 µg/mL)
N#Cc1ccccc1C(=O)N1CCC(C(=O)c2ccc(F)cc2)CC1	135 (≈ 45.4 µg/mL)
COc1ccc(NC(=O)c2cccn(CC=C(C)C)c2=O)cc1	7.2 (≈ 2.25 µg/mL)
CC[C@@H](C)NC(=O)c1ccc(Oc2ccc(C#C[C@]3(O)CN4CCC3CC4)cc2)cc1	112 (≈ 47 µg/mL)
C[C@@H](Oc1cccc2ncnc(Nc3ccc4c(cnn4Cc4cscn4)c3)c12)C(N)=O	8.7 (≈ 3.88 µg/mL)

Structure (SMILES)	solubility thermodynamic [µM]
COc1cc2ncnc(Nc3ccc(Oc4ccccc4)cc3)c2cc1OC	0.3 (≈ 0.112 µg/mL)
COc1cc2c(Nc3ccc(NC(=O)c4ccccc4)cc3)ncnc2cc1OCCCN1CCOCC1	2.5 (≈ 1.28 µg/mL)
CS(=O)(=O)c1ccc(N2CCN(C(=O)[C@@H]3CCCC[C@H]3C(=O)NCC#N)CC2)cc1	275 (≈ 119 µg/mL)
Nc1ccccc1NC(=O)c1ccc(N2CCOCC2)cc1	182 (≈ 54.1 µg/mL)
Cn1nc(C(C)(C)C)cc1C(=O)N[C@@H](Cc1cccc(Cl)c1)C(=O)NCC#N	93.3 (≈ 37.5 µg/mL)
CN(C)S(=O)(=O)n1c2ccccc2c2cc(NC(=O)CCc3ccncc3)ccc21	9.5 (≈ 4.01 µg/mL)
O=C(Cc1cc(Nc2ncnc3cc(OCCCN4CCC[C@@H]4CO)ccc23)[nH]n1)Nc1cccc(F)c1	102 (≈ 53.2 µg/mL)
CC(C)(C)CNCCn1c(Sc2nc3cccc(Cl)c3s2)nc2c(N)ncnc21	0.5 (≈ 0.224 µg/mL)
O=C(c1ccc(F)cc1)C1CCN(C(=O)N2CCOCC2)CC1	1150 (≈ 368 µg/mL)
CC1(C)Oc2ncnc(N)c2N=C1c1ccc(C23CCC(C(=O)O)(CC2)CC3)cc1	3.2 (≈ 1.3 µg/mL)
CC(=O)Nc1ccc(Br)cc1	832 (≈ 178 µg/mL)
CC(C)Oc1cc(O[C@@H](C)Cc2ccccc2)cc(C(=O)Nc2ccc(C(=O)O)cn2)c1	9.1 (≈ 3.95 µg/mL)
COC[C@H](C)Oc1cc(O[C@@H](C)Cc2cc(F)cc(F)c2)cc(C(=O)Nc2ccc(C(=O)O)cn2)c1	646 (≈ 323 µg/mL)
COc1cc2c(Nc3cc(CC(=O)Nc4cc(F)cc(F)c4)[nH]n3)ncnc2cc1OCCCN1CCC(CO)CC1	214 (≈ 124 µg/mL)
CC(C)Oc1cc(OCCc2ccncc2)cc(C(=O)Nc2ccc(C(=O)O)cn2)c1	1070 (≈ 452 µg/mL)
CC(C)Oc1cc(OCc2ccccc2F)cc(C(=O)Nc2ccc(C(=O)O)cn2)c1	61.7 (≈ 26.2 µg/mL)
O=S(=O)(NCc1ccccc1)c1cccc2nonc12	141 (≈ 40.9 µg/mL)
N#CC1(NC(=O)[C@@H]2CCCC[C@H]2C(=O)N2CCc3[nH]c4ccc(Cl)cc4c3C2)CC1	129 (≈ 54.7 µg/mL)
O=C(Nc1cccc(O)c1)c1ccc(OCCCN2CCCC2)cc1OCc1ccc(F)cc1	5 (≈ 2.32 µg/mL)
O=C(Nc1ccccc1)Nc1cnns1 [THIDIAZURON]	178 (≈ 39.2 µg/mL)
CCC[C@@H]1O[C@@H]2C[C@H]3[C@@H]4CCC5=CC(=O)C=C[C@]5(C)[C@H]4[C@@H](O)C[C@]3(C)[C@]2(C(=O)CO)O1 [DEXBUDESONIDE]	19.5 (≈ 8.4 µg/mL)
CN(C(=O)Cc1ccc(-n2cnnn2)cc1)[C@@H]1CCN(Cc2ccc(C(F)(F)F)cc2)C[C@@H]1F	16.2 (≈ 7.72 µg/mL)
CCn1cc(NC(=O)Cc2ccc(Oc3ncnc4cc(OC)c(OC)cc34)cc2)cn1	24 (≈ 10.4 µg/mL)
CC(C)(C)c1cc(=O)n(-c2ccccc2)[nH]1	708 (≈ 153 µg/mL)

Structure (SMILES)	solubility thermodynamic [µM]
COC1CCN(C(=O)C2CCN(CCc3c(-c4cc(C)cc(C)c4)[nH]c4sc(C(C)(C)C(=O)N5C6CCC5CC6)cc34)CC2)C1 (stereo not given)	70.8 (≈ 44.7 µg/mL)
O=S(=O)(Nc1ccccn1)c1ccc(C2CCCCC2)cc1	2.8 (≈ 0.886 µg/mL)
Cc1c(Br)sc2nc(O)c(-c3ccccc3)c(O)c12	3.9 (≈ 1.31 µg/mL)
NC(=O)Nc1sc(-c2ccc(Cl)c(Cl)c2)cc1C(=O)N[C@H]1CCCNC1	66.1 (≈ 27.3 µg/mL)
C[C@H](Oc1cccc2ncnc(Nc3ccc4c(cnn4Cc4ccccn4)c3)c12)C(=O)N1CCOCC1	166 (≈ 84.6 µg/mL)
Cc1ccc(CO)cc1N(C)c1ccnc(Nc2cc(N3CCOCC3)cc(S(C)(=O)=O)c2)n1	15.8 (≈ 7.64 µg/mL)
COc1cc2c(Nc3ncc(CC(=O)Nc4cccc(F)c4)s3)ncnc2cc1OCCCN1CCN(C)CC1	1.8 (≈ 1.02 µg/mL)
CNC(=O)c1cc(COc2nnc(Nc3ccc(Cl)cc3)c3ccoc23)ccn1 [TELATINIB]	0.3 (≈ 0.123 µg/mL)
Clc1cc(Nc2ncnc3[nH]nc(OCCN4CCOCC4)c23)ccc1OCc1ccccn1	2 (≈ 0.964 µg/mL)
COc1c(C)c2c(c(O)c1C/C=C(\C)CCC(=O)NO)C(=O)OC2 [MYCOPHENOLIC HYDROXAMIC ACID]	1000 (≈ 335 µg/mL)
CS(=O)(=O)c1cccc(CNc2nc(Nc3ccc4c(c3)CCC(=O)N4)ncc2C(F)(F)F)c1	0.5 (≈ 0.246 µg/mL)
CCN(C(=O)Cc1ccc(S(C)(=O)=O)cc1)C1CCN(CC[C@@H](c2ccccc2)C2CCN(S(=O)(=O)C(F)(F)F)CC2)CC1	56.2 (≈ 37 µg/mL)
Cc1cnc(NC(=O)CSc2nnc(C)s2)s1	70.8 (≈ 20.3 µg/mL)
COc1cc(Oc2ccnc3cc(OC)c(OC)cc23)ccc1CC(=O)Nc1cn(C)nc1C	8.9 (≈ 4.12 µg/mL)
CN(C)C(=O)[C@H](Cc1ccccc1)NC(=O)c1cc2cc(Cl)sc2[nH]1	1.5 (≈ 0.564 µg/mL)
O=C(NCc1ccccc1)c1cccn(Cc2ccccc2)c1=O	26.3 (≈ 8.37 µg/mL)
CN(C(=O)c1ccco1)c1nnc(C23CC4CC(CC(C4)C2)C3)s1	3 (≈ 1.03 µg/mL)
COc1cc(N2CC3COCC(C2)N3)ccc1Nc1ncc(Cl)c(-c2cnc3ccccn23)n1	2.6 (≈ 1.24 µg/mL)
CN1CCN(c2ccc3nc(-c4c(N)c5c(F)cccc5[nH]c4=O)[nH]c3c2)CC1 [DOVITINIB]	8.3 (≈ 3.26 µg/mL)
CC(C)n1c2ccc(F)cc2c2cc(NC(=O)N3CCOCC3)ccc21	34.7 (≈ 12.3 µg/mL)
Cc1ncc(-c2nc(Nc3ccc(N4CCOCC4)cc3)ncc2F)n1C(C)C	118 (≈ 46.6 µg/mL)
COc1cc(S(N)(=O)=O)c(OC)cc1N	93.3 (≈ 21.7 µg/mL)
COc1cc2ncnc(Nc3ccc(NC(=O)c4ccccc4)cc3)c2cc1OC [ANILINOQUINAZOLINE1]	10 (≈ 4 µg/mL)
c1ccc2oc(-c3cncc(-c4cnn(C5CCNCC5)c4)c3)nc2c1	87.1 (≈ 30.1 µg/mL)

Structure (SMILES)	solubility thermodynamic [µM]
Cc1c(NC(=O)OC[C@@H]2COCCN2)cn2ncnc(Nc3ccc4c(cnn4Cc4cccc(F)c4)c3)c12 [AC-480]	1.7 (≈ 0.902 µg/mL)
CN(C)C(=N)c1ccc(C(=O)N2CCN(S(=O)(=O)c3ccc4cc(Br)ccc4c3)CC2)cc1	1320 (≈ 698 µg/mL)
N#CCNC(=O)[C@@H]1CCCC[C@H]1C(=O)N1CCN(c2ccccc2)CC1	631 (≈ 224 µg/mL)
CN(c1ccnc(Nc2cc(N3CCOCC3)nc(N3CCOCC3)c2)n1)c1cccc2[nH]ncc12	0.8 (≈ 0.39 µg/mL)
CCn1cc(NC(=O)Cc2ccc(Oc3ccnc4cc(OC)ccc34)cc2OC)cn1	3.2 (≈ 1.38 µg/mL)
N#CC1(NC(=O)[C@@H]2CCCC[C@H]2C(=O)N2CCc3[nH]c4ccccc4c3C2)CC1	912 (≈ 356 µg/mL)
CC(C)Oc1cc(O[C@H](C)c2ccccc2)cc(C(=O)Nc2ccc(C(=O)O)cn2)c1	112 (≈ 47.2 µg/mL)
Oc1cc(-c2ccccc2)nc2c(O)cccc12	41.7 (≈ 9.89 µg/mL)
CC(C)CCn1c(Cn2c(=O)n(C3CC3)c(=O)c3ccccc32)nc2cc(CN)ccc21	70.8 (≈ 30.6 µg/mL)
CCOC(=O)c1cc2ccccc2[nH]1	89.1 (≈ 16.9 µg/mL)
COc1cc2cc(O)nc(C)c2cc1OC	209 (≈ 45.8 µg/mL)
C[C@@H]1CN(c2nc(N3CCOCC3)c3ccc(-c4ccccc4)nc3n2)C[C@H](C)O1	1.8 (≈ 0.73 µg/mL)
CN(C(=O)Cc1ccc(-n2cnnn2)cc1)[C@H]1CCN(Cc2ccc(C(F)(F)F)cc2)C[C@H]1F	8.1 (≈ 3.86 µg/mL)
NC(=O)Nc1sc(-c2ccccc2)cc1C(=O)Nc1ccccc1	0.6 (≈ 0.202 µg/mL)
COc1ccc(N2CCNCC2)cc1Nc1ncc(Cl)c(-c2cnc3ccccn23)n1	69.2 (≈ 30.2 µg/mL)
O=C(Nc1cccc(O)c1)c1ccc(OCCCN2CCCC2)cc1OC1CCCC1	58.9 (≈ 25 µg/mL)
COc1cc2ncc(C#N)c(Nc3ccc(Oc4ccccc4)cc3)c2cc1OC	1.4 (≈ 0.556 µg/mL)
COc1ccc(NC(=O)c2cc(C)no2)cc1	158 (≈ 36.8 µg/mL)
CN(C)C(=O)[C@H](Cc1ccccc1)NC(=O)c1cc2cc(Cl)ccc2[nH]1	2.6 (≈ 0.962 µg/mL)
COc1cc2ncnc(Nc3cc(O)c(C)cc3F)c2cc1OC	2.2 (≈ 0.725 µg/mL)
Nc1nnc(-c2ccccc2F)s1	316 (≈ 61.7 µg/mL)
O=C(c1ccc(F)cc1)C1CCN(C(=O)c2cccc(OC(F)(F)F)c2)CC1	11 (≈ 4.35 µg/mL)
COCC(=O)NC/C=C/c1ccc2ncnc(Nc3ccc(Oc4ccc(C)nc4)c(C)c3)c2c1 [CP-724714]	1.1 (≈ 0.516 µg/mL)
